Measured values as given in article PMC7935272 (PLoS Pathogens, 2021).
Several values for one entry are separate records, joined by “and”; a condition that tells them apart may be missing. Equal entries are not always repeated.

Legend:
MeV L I1009F [1] = target: T1, MeV L I1009F (Measles virus, UniProt P12576, I1009F); test: MeV minigenome dose-response assay, L I1009F; type: cell-based; conditions: EC50, L I1009F vs WT
T1 construct: expressed in transfected cells; host or cells: BSR-T7/5

MeV L T776A = target: T2, MeV L T776A (Measles virus, UniProt P12576, T776A); test: MeV minigenome dose-response assay, L T776A; type: cell-based
T2 construct: expressed in transfected cells; host or cells: BSR-T7/5

MeV L1708 Y1106S = target: MeV L1708 Y1106S; parameters: method as in PMID 32661315; conditions: BLI, reported previously ref 36; cited from earlier work
MeV L L1170F = target: T3, MeV L L1170F (Measles virus, UniProt P12576, L1170F); test: MeV minigenome dose-response assay, L L1170F; type: cell-based; conditions: for minigenome activity, individual repeat: Figure 1E
T3 construct: expressed in transfected cells; host or cells: BSR-T7/5

MeV L = target: T4, MeV L (Measles virus, UniProt P12576); test: MeV minigenome dose-response assay, L WT; type: cell-based; conditions: for minigenome activity, individual repeat: WT, Figure 1E
T4 construct: expressed in transfected cells; host or cells: BSR-T7/5

MeV L1708 E858D = target: MeV L1708 E858D; parameters: method as in PMID 32661315; conditions: BLI, reported previously ref 36; cited from earlier work
MeV L H589Y = target: T5, MeV L H589Y (Measles virus, UniProt P12576, H589Y); test: MeV minigenome dose-response assay, L H589Y; type: cell-based; conditions: for minigenome activity, individual repeat: H589Y, Figure 1E
T5 construct: expressed in transfected cells; host or cells: BSR-T7/5

MeV L Y1106S [2] = target: T6, MeV L Y1106S (Measles virus, UniProt P12576, Y1106S); test: MeV minigenome dose-response assay, L Y1106S; type: cell-based; conditions: EC50, L Y1106S vs WT
T6 construct: expressed in transfected cells; host or cells: BSR-T7/5

MeV L T1010N [3] = target: T7, MeV L T1010N (Measles virus, UniProt P12576, T1010N); parameters: method as in PMID 32661315; conditions: minigenome, reported previously ref 36; cited from earlier work
T7 construct: expressed in transfected cells; host or cells: BSR-T7/5

MeV L T1010N [4] = target: T7, MeV L T1010N; test: MeV minigenome dose-response assay, L T1010N; type: cell-based; conditions: EC50, L T1010N vs WT
MeV L S768A = target: T8, MeV L S768A (Measles virus, UniProt P12576, S768A); test: MeV minigenome dose-response assay, L S768A; type: cell-based
T8 construct: expressed in transfected cells; host or cells: BSR-T7/5

MeV L1708 I1009F = target: MeV L1708 I1009F; parameters: method as in PMID 32661315; conditions: BLI, reported previously ref 36; cited from earlier work
MeV L I1009F [5] = target: T1, MeV L I1009F; parameters: method as in PMID 32661315; conditions: minigenome, reported previously ref 36; cited from earlier work
MeV L E858D [6] = target: T9, MeV L E858D (Measles virus, UniProt P12576, E858D); parameters: method as in PMID 32661315; conditions: minigenome, reported previously ref 36; cited from earlier work
T9 construct: expressed in transfected cells; host or cells: BSR-T7/5

MeV L1708 = MeV L1708 (Measles virus, UniProt Q9WMB3); parameters: method as in PMID 32661315; conditions: BLI, MeV L1708 WT; reported previously ref 36; cited from earlier work
MeV L Y1106S [7] = target: T6, MeV L Y1106S; parameters: method as in PMID 32661315; conditions: minigenome, reported previously ref 36; cited from earlier work
MeV L V1239A = target: T10, MeV L V1239A (Measles virus, UniProt P12576, V1239A); test: MeV minigenome dose-response assay, L V1239A; type: cell-based; conditions: for minigenome activity, individual repeat: Figure 1E
T10 construct: expressed in transfected cells; host or cells: BSR-T7/5

MeV L E858D [8] = target: T9, MeV L E858D; test: MeV minigenome dose-response assay, L E858D; type: cell-based; conditions: EC50, L E858D vs WT

Compound: NC(=O)c1c(F)cccc1-c1cccc2cnccc12 [GHP-88309]
- fold change to WT (MeV L I1009F [1]): 8.3
- fold change to WT (MeV L T776A; EC50, L T776A vs WT): 1.1
- EC50 (MeV L T776A; minigenome, L T776A): 2.39 µM
- Kd (MeV L1708 Y1106S): > 300 µM
- fold change to WT (MeV L L1170F; EC50, L L1170F vs WT): 0.7
- minigenome activity, individual repeat (MeV L L1170F; GHP-88309 0.0457247 µM, L L1170F): 120 and 119 and 105
- minigenome activity, individual repeat (MeV L L1170F; GHP-88309 0.137174 µM, L L1170F): 97 and 98 and 103
- minigenome activity, individual repeat (MeV L L1170F; GHP-88309 0.411523 µM, L L1170F): 56 and 67 and 65
- minigenome activity, individual repeat (MeV L L1170F; GHP-88309 1.23457 µM, L L1170F): 92 (2×) and 86
- minigenome activity, individual repeat (MeV L L1170F; GHP-88309 3.7037 µM, L L1170F): 27 and 26 and 21
- minigenome activity, individual repeat (MeV L L1170F; GHP-88309 11.1111 µM, L L1170F): 0 (2×) and 1
- minigenome activity, individual repeat (MeV L L1170F; GHP-88309 33.3333 µM, L L1170F): -1 and 0 (2×)
- EC50 (MeV L L1170F; minigenome, L L1170F): 2.41 µM
- minigenome activity, individual repeat (MeV L; GHP-88309 0.411523 µM): 87.746 and 92.4701
- minigenome activity, individual repeat (MeV L; GHP-88309 1.23457 µM): 77.6244 and 62.4876 and 68.5227 and 90 and 86 and 112
- minigenome activity, individual repeat (MeV L; GHP-88309 3.7037 µM): 31.991 and 34.7895 and 30.6512 and 25 and 32 and 29
- minigenome activity, individual repeat (MeV L; GHP-88309 11.1111 µM): 2.411 and 2.106 and 2.445 and 2 and 4 and 3
- minigenome activity, individual repeat (MeV L; GHP-88309 33.3333 µM): 1.248 and 0.5543 and 0.7091 and -4 and 2 and 3
- minigenome activity, individual repeat (MeV L; GHP-88309 100 µM): 0.7732 and 1.544 and 0.3453
- EC50 (MeV L; minigenome, L WT): 2.4 µM
- Kd (MeV L1708 E858D): 8.6 µM
- fold change to WT (MeV L H589Y; EC50, L H589Y vs WT): 1.8
- minigenome activity, individual repeat (MeV L H589Y; GHP-88309 0.0457247 µM): 99.134 and 165.3 and 161.609
- minigenome activity, individual repeat (MeV L H589Y; GHP-88309 0.137174 µM): 129.072 and 126.646 and 70.0978
- minigenome activity, individual repeat (MeV L H589Y; GHP-88309 0.411523 µM): 102.614 and 60.5017 and 60.0219
- minigenome activity, individual repeat (MeV L H589Y; GHP-88309 1.23457 µM): 96.1391 and 78.5761 and 76.4935
- minigenome activity, individual repeat (MeV L H589Y; GHP-88309 3.7037 µM): 76.5304 and 44.0459 and 30.8961
- minigenome activity, individual repeat (MeV L H589Y; GHP-88309 11.1111 µM): 19.3913 and 21.0627 and 38.9421
- minigenome activity, individual repeat (MeV L H589Y; GHP-88309 33.3333 µM): 3.067 and 1.981 and 4.217
- minigenome activity, individual repeat (MeV L H589Y; GHP-88309 100 µM): -0.2175 and 2.229 and 0.06723
- EC50 (MeV L H589Y; minigenome, L H589Y): 3.91 µM
- fold change to WT (MeV L Y1106S [2]): >50
- EC50 (MeV L T1010N [3]): 8.36 µM
- fold change to WT (MeV L T1010N [4]): 3.8
- fold change to WT (MeV L S768A; EC50, L S768A vs WT): 0.6
- EC50 (MeV L S768A; minigenome, L S768A): 1.26 µM
- Kd (MeV L1708 I1009F): 68.3 µM
- EC50 (MeV L I1009F [5]): 18.6 µM
- EC50 (MeV L E858D [6]): 15 µM
- Kd (MeV L1708): 6.2 µM
- EC50 (MeV L Y1106S [7]): > 100 µM
- fold change to WT (MeV L V1239A; EC50, L V1239A vs WT): 0.7
- minigenome activity, individual repeat (MeV L V1239A; GHP-88309 0.0457247 µM, L V1239A): 96 and 97 and 118
- minigenome activity, individual repeat (MeV L V1239A; GHP-88309 0.137174 µM, L V1239A): 120 and 103
- minigenome activity, individual repeat (MeV L V1239A; GHP-88309 0.411523 µM, L V1239A): 66 and 59 (2×)
- minigenome activity, individual repeat (MeV L V1239A; GHP-88309 1.23457 µM, L V1239A): 80 and 79 (2×)
- minigenome activity, individual repeat (MeV L V1239A; GHP-88309 3.7037 µM, L V1239A): 33 (2×) and 30
- minigenome activity, individual repeat (MeV L V1239A; GHP-88309 11.1111 µM, L V1239A): 2 (2×) and 3
- minigenome activity, individual repeat (MeV L V1239A; GHP-88309 33.3333 µM, L V1239A): -2 and 1 (2×)
- EC50 (MeV L V1239A; minigenome, L V1239A): 2.03 µM
- fold change to WT (MeV L E858D [8]): 6.7
